Experimental data as given in US8101580B2, “Therapeutic agent for irritable bowel syndrome” (Astellas Pharma Inc., priority 2005, dated 2012).

Key:
BB2 receptor = target: T1, BB2 receptor (Homo sapiens, UniProt P30550); experiment: BB2 receptor binding test (125I [Tyr4] bombesin, PC-3 cell membrane sample); settings: membrane sample of human prostate cancer-derived PC-3 cell; 125I [Tyr4] bombesin 0.075 nM; room temperature, 2 hours; read-out: 50% binding inhibition concentration
T1 construct: endogenous in cells; host or cells: PC-3 human prostate cancer cells (membrane preparation)
Protocol: A BB2 receptor binding test was carried out using a membrane sample prepared from a human prostate cancer-derived PC-3 cell. The PC-3 cell was cultured using RPMI-1640 medium containing 5% fetal bovine serum, and then a membrane sample was prepared by the following methods. The cells loosened by a trypsin treatment were mixed with 50 mM Tris-HCl buffer (pH 7.4, containing 0.2 mg/ml trypsin inhibitor and 0.2 mg/ml benzamidine) and homogenized by Polytron. The cell suspension was centrifuged at 1,500 rpm for 10 minutes, and the thus obtained supernatant was subjected to 1 hour of ultracentrifugation at 37,000 rpm. The precipitate was suspended in the aforementioned buffer to a concentration of 0.4 mg protein/ml and stored at −80° C.
The BB2 receptor binding test was carried out by the following method, and the receptor antagonistic activity of a compound to be tested was calculated. A 50 μl portion of the membrane sample, 50 μl of an assay buffer (20 mM HEPES-HBSS containing 0.1% bovine serum albumin and 0.1 mg/ml bacitracin, pH 7.4) ^125I [Tyr^4] bombesin (0.075 nM) and 2 μl of each compound to be tested dissolved in dimethyl sulfoxide were added to a 96 well assay plate and incubated at room temperature for 2 hours. Non-specific binding was measured using 1 μM of bombesin. After completion of the incubation, the reaction liquid was filtered through a Whatman GF/B filter which had been soaked in 0.5% polyethyleneimine. The radioactivity on the filter was measured using a microplate scintillation counter (Top Count, Perkin-Elmer).

fed male ddY mice = experiment: Restraint stress-induced defication model; format: in vivo; settings: for 50% inhibition dose for restraint stress-induced defication: number of feces excreted during 1 hour of restraint
Excerpt: RC-3095 was used by dissolving in physiological saline, and compound 1, compound 3 and compound 5 in physiological saline containing 5% ethanol+5% Cremophor, and compound 2 and compound 4 in water for injection containing 20% propylene glycol+20% Tween 80. Just after intraperitoneal administration of a compound to be tested to each of fed male ddY mice, the animal was put into a restraint stress cage (KN-469, Natsume Seisakusho). The number of feces excreted during a period of from the restriction commencement to 1 hour thereafter was measured. Normal group was put into a separate cage, and number of feces excreted during 1 hour was measured in the same manner.

[1] = test system: fed male Sprague-Dawley rats; experiment: Conditioned-fear stress (CFS)-induced defication model; format: in vivo; settings: wet weight of feces for 30 minutes
Protocol: Fed male Sprague-Dawley rats were used. The rats were put into an electric shock device having a grid set in the floor (17×17×39 cm, trade name: CB 2000 type, O'Hara), and conditioning was carried out after 3 seconds of a warning sound, by applying an electric current of 2.5 mA for 5 seconds per once per minute, a total of 15 times, and carrying out light irradiation by three 40 W electric bulbs at the time of the electric shock. The normal group was put into the measuring device by the same protocol, but the electric shock was not applied. After about 24 hours, the rats were again put into the electric shock device just after intraperitoneal administration of tested compound, and CFS loading was carried out by applying 3 seconds of warning sound and 5 seconds light irradiation for 30 minutes. Wet weights of excreted feces were measured for 30 minutes starting from the commencement of CFS loading. In this connection, the feces just after putting of the rats into the measuring device were excluded from measured values.

fed male Wistar rats = experiment: Abdominal pain model by large intestinal distension using abdominal muscle contraction reaction as the index; format: in vivo
Protocol: Fed male Wistar rats were used. Under pentobarbital anesthesia, an electrode for electromyogram use (trade name: M-1.5I, Star Medical) was sewed on the outer abdominal oblique muscle. The electrode cord was fished out from the body of around the back of the head through the skin and protected with a protective jacket prepared by processing Velcro. The test was carried out when 5 days or more passed after the surgical operation.
On the day of the test, a latex balloon of 5 to 6 cm in length was inserted from the rat anus under a light ether anesthesia and adjusted such that the balloon end is positioned at 2 cm from the anus. The catheter continuing from the balloon was fixed to the tail base with a tape and connected to a pressure transducer and a plastic bottle filled with water via a three-way cock. The plastic bottle was connected to a motor-aided device such that its height can be increased at a constant rate, and the colon-rectum was distended by increasing height of the plastic bottle. The balloon internal pressure signal was amplified using an amplifier for strain pressure use. After recovering from the ether anesthesia in a cage (23.5×19×19 cm), the colon-rectum distension was carried out. […] As a result, the abdominal muscle contracts and the electromyogram activities increase suddenly and sharply. The pressure at this point of time was regarded as the abdominal pain reflection threshold value. The electromyogram activities were amplified using an amplifier for bioelectric use (trade name: AB-621G, Nihon Kohden Corp.), and recorded by a data recording interface (trade name: 1401 plus, Cambridge Electronic Design, Cambridge, England). The colon-rectum distension was repeatedly carried out at intervals of 4 minutes until completion of the test. The compound was administered 2 minutes after completion of the measurement of the pre-administration value, and the colon-rectum distension was repeated until 60 minutes after the administration. […]

patients = settings: IBS patients; cited from earlier work

T1 sequence (P30550 whole entry): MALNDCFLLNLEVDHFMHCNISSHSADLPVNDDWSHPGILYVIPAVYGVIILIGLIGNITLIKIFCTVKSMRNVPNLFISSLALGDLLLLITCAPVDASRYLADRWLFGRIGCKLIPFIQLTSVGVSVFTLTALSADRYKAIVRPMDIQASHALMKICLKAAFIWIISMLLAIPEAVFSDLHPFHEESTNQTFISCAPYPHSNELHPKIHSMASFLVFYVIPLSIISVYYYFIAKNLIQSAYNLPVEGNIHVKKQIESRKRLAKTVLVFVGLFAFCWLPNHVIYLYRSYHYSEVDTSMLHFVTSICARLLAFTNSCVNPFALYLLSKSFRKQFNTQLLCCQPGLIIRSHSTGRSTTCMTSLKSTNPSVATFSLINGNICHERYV

Compound | IC50 (BB2 receptor) [µM] | 50% inhibition dose for restraint stress-induced defication (fed male ddY mice; intraperitoneal) [mg/kg] | further results
O=C(Nc1ccc(S(=O)(=O)N2CCCCC2c2cccnc2)cc1)c1cc([N+](=O)[O-])ccc1Cl (centres unmarked) [compound 3, 2-chloro-5-nitro-N-(4-{[2-(pyridin-3-yl)piperidin-1-yl]sulfonyl}phenyl)benzamide] | 0.342 | 19.0 | –
COc1ccc(N(CC(=O)Nc2ccc(Cl)cc2C)S(=O)(=O)c2ccccc2)cc1OC [compound 4] | 0.398 | 13.5 | –
c1ccc(-c2sc(-c3ccccn3)nc2-c2cccc3ccccc23)cc1 [compound 1, 2-[4-(1-naphthyl)-5-phenyl-1,3-thiazol-2-yl]pyridine] | 0.504 | – | inhibitory effect on the defication (fed male ddY mice; 10 mg/kg intraperitoneal, number of feces during 1 hour of restraint): about 83%
CC(C)CC(CN[C@@H](CC(C)C)C(N)=O)NC(=O)[C@H](Cc1cnc[nH]1)NC(=O)CNC(=O)[C@@H](NC(=O)C(C)NC(=O)[C@H](Cc1c[nH]c2ccccc12)NC(=O)[C@H](CCC(N)=O)NC(=O)[C@H]1Cc2c([nH]c3ccccc23)CN1)C(C)C (some centres unmarked) [RC-3095] | 0.02 | 5.2 | effect on restraint stress-induced defication (in words) (fed male ddY mice; intraperitoneal, FIG. 2): dose-dependent inhibitory effect on the defication; effect on CFS-induced defication at 10 mg/kg (in words) ([1]; 10 mg/kg intraperitoneal): significant inhibitory action; effect on CFS-induced defication (in words) ([1]; intraperitoneal, FIG. 8): dose-dependent inhibitory effect on the defication; action on abdominal pain threshold value at 3 mg/kg (in words) (fed male Wistar rats; 3 mg/kg, AUC of threshold values until 60 minutes): significant increasing action; action on abdominal pain threshold value at 10 mg/kg (in words) (fed male Wistar rats; 10 mg/kg, AUC of threshold values until 60 minutes): significant increasing action; action on abdominal pain threshold value (in words) (fed male Wistar rats; AUC of threshold values until 60 minutes after administration, FIG. 9): dose-dependently increase abdominal pain threshold value
O=C(/C=C/c1ccc(-c2ccc([N+](=O)[O-])cc2)o1)c1ccccc1 [compound 2, (2E)-3-[5-(4-nitrophenyl)-2-furyl]-1-phenyl-2-propen-1-one] | 1.33 | 34.3 | –
COc1cc(OC)cc(C(=O)Nc2sc3c(c2-c2nc4ccccc4s2)CCN(C(C)C)C3)c1.Cl [compound 5, N-[3-(1,3-benzothiazol-2-yl)-6-isopropyl-4,5,6,7-tetrahydrothieno[2,3-c]pyridin-2-yl]-3,5-dimethoxybenzamide hydrochloride] | 0.383 | 15.6 | –
Cc1[nH]cnc1CN1CCc2c(c3ccccc3n2C)C1=O [alosetron] | – | – | improving rate for abdominal symptoms and diarrhea (patients): 40 to 60%; serious side effect (patients): ischemic colitis (including mortal cases)
